From paper PMC4876444, “Two-Photon Enzymatic Probes Visualizing Sub-cellular/Deep-brain Caspase Activities in Neurodegenerative Models” (Scientific Reports, 2016)

Assays:
HeLa cells = assay: Permeability of free dye and probes in live cells (fluorescence imaging); type: cell-based, human; settings: live HeLa cells, probes 24 μM (AAN 5 μM), 1 h, 37 °C, one-photon fluorescence imaging with LysoTracker
Procedure: Supplementary Figure 5. Detection of caspase activities in live mammalian cells. (a) One-photon images of AAN (5 μM)/probes (24 μM)/DMSO (blank) in live HeLa cells after 1-h incubation together with LysoTracker. (Panels 1-7) bright field; (Panels 8-14) λex = 405 nm, λem = 420-480 nm (indicative of probes, blue); (Panels 15-21) λex = 405 nm, λem = 470-500 nm (indicative of AAN, green); (Panels 22-28) LysoTracker (λex = 543 nm, λem = 560-615 nm, red); (Panels 29-35) merged images of blue/red channels. Scale bar: 20 μm. (b) Bioimaging of NIH/3T3 cells transfected with active caspase-1 (Panels 2/3/5/6; 50 ng)/caspase-3 (Panels 8/9; 15 ng)/caspase-8 (Panels 11/12; 5 ng) with/without inhibitor treatment (Panels 3/6/9/12, 50 μM of Z-VAD-FMK incubated for 1 h before probes were added) as well as control cells (Panels 1/4/7/10, no caspase transfection) by using C1RB (24 μM)/C1FS (12 μM) for caspase-1, C3RA (24 μM) for caspase-3 and C8RA (24 μM) for caspase-8. Cells were co-stained with membrane tracker. (Green) signals from caspase-cleaved probes (λex = 760 nm, λem = 480-550 nm for all probes, except for C1FS with λem = 450-550 nm). (Red) membrane tracker (λex = 650 nm, λem = 655-740 nm). (Inset) bright field. Scale bar = 10 μm. […]
XTT assay. The cytotoxicity of our probes was determined by using the XTT colorimetric cell proliferation kit (Roche) following manufacturer’s guidelines. […]

[1] = tested on: caspase-3/-7-like activities in brain slices; assay: TPFM of caspase-3 activation in brain slices of ethanol-intoxicated mouse; settings: 200 μM, 3 h prior to C3RA
Procedure: Figure 4 Imaging endogenous caspase activities in deep tissues. (a) TPFM of caspase-3 activation in brain slices of ethanol-intoxicated 7-day-old C57BL/6 mouse using C3RA (120 μM, 3 h). Top: 3D images of the mouse brain slice taken along the Z-axis from 0 to 160 μm at 10x magnification. Bottom: images taken at a depth of 120 μm at 40x magnification. […]: control slices (saline-treated); panels 2/6/4/8: treated with caspase-3/7 inhibitor I (200 μM, 3 h). Scale bar = 50 μm. (b) RFU readings extracted from (a) (FTPFM, blue bars) versus those from in vitro enzymatic assays using lysates from the same brain slices (RFU, orange bars). The signal from saline controls was set as “0” and that from ethanol-treated samples was set as “1” in RFU quantification. Due to the base-level active caspase-3 in the saline controls, negative readings were shown with inhibitor-treated samples. (c) WB analysis of caspase-3/-1/-8 activation in lysates of the same mouse brain slices shown in (a). (d) Normalized RFU readings from in vitro enzymatic assays using brain lysates (300 μg) of saline/ethanol treated mice after incubation with C1RB/C3RA/C8RA (6 μM) for 1 h at 37 °C.
All two-photon images were taken on a Leica TCS SP5X Confocal Microscope System. […]

CC(=O)c1ccc2cc(N)ccc2c1 [AAN, 2-acetyl-6-aminonaphthalene, reference compound]
cell permeability (HeLa cells): diffuse freely

COC[C@@H]1CCCN1S(=O)(=O)c1ccc2c(c1)C(=O)C(=O)N2 [caspase-3/7 inhibitor I, reference compound]
effect of inhibitor pre-treatment on C3RA fluorescence in brain slices [1]: completely abolished the fluorescence
